These molecules were tested against T1, Microsomal triglyceride transfer protein (MTP) from human small intestine microsome (Homo sapiens, UniProt P55157) (assay: Inhibition test of interliposomal triglyceride (TG) transfer activity by MTP). Details: purified MTP from human small intestine microsome, 37° C., 1.5 hours.
T1 construct: Human small intestine microsome was dialyzed against 10 mM phosphate buffer; tissue Tissue Transforming Technologies, Inc; host or cells: human small intestine microsome
T1 sequence (P55157 19-894): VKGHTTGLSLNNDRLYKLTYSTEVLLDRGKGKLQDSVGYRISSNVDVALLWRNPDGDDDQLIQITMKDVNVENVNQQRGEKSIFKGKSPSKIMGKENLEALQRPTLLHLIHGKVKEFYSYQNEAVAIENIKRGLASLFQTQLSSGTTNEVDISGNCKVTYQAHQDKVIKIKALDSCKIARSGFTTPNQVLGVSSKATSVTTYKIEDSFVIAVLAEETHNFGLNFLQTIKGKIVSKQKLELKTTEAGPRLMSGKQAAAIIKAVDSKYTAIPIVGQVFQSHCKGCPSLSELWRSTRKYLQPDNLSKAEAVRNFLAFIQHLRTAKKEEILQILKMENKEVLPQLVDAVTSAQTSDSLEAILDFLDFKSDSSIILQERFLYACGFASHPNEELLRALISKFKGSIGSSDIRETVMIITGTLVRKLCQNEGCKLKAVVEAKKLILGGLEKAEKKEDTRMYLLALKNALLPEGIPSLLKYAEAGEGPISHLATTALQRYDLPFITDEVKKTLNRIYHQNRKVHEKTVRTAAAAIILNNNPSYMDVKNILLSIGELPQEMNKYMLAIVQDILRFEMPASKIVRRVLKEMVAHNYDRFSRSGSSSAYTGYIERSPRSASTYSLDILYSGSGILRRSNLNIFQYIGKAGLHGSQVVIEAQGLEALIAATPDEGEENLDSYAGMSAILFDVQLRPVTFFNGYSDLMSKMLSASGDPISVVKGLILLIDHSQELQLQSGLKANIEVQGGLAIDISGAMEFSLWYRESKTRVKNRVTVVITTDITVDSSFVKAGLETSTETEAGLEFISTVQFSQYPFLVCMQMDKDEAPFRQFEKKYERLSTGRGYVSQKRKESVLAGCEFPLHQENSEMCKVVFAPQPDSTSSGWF
T1 sequence (P07237 18-508 partner): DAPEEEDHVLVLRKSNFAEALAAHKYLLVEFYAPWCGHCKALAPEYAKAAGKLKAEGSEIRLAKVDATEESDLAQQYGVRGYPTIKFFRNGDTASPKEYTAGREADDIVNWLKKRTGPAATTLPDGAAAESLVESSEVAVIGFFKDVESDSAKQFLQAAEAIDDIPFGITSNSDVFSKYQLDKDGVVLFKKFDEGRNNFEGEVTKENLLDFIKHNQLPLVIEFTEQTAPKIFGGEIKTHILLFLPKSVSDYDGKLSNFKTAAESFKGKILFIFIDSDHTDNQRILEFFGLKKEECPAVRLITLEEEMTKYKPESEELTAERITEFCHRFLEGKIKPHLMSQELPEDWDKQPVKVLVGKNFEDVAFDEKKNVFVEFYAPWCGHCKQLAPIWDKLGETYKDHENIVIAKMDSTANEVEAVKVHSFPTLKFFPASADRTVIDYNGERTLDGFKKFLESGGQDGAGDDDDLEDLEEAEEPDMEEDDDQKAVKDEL
Format: biochemical
Experimental: Microsomal triglyceride transfer protein (MTP) from human small intestine microsome (manufactured by Tissue Transforming Technologies, Inc.) was purified in such a way described below. Human small intestine microsome was dialyzed against 10 mM phosphate buffer (300 mL, pH 6.8) twice for about 2 hours and once for further not less than 12 hours, at about 4° C. After dialysis, the mixture was centrifuged at 4° C. and 15,000×g for 5 minutes and then the supernatant was recovered. The previously recovered supernatant was purified by column chromatography on diethylaminoethyl (DEAE) Sepharose using FPLC (Fast Performance Liquid Chromatography) system, and the purified MTP was used for the test as described below.
Small unilamellar-vesicle (SUV) liposome (hereinafter described as donor, containing 0.25% (mol/mol) triolein and 5% (mol/mol) cardiolipin) constituted by triolein labeled with ^14C and non-labeled SUV liposome (hereinafter described as acceptor, containing […] triolein) were prepared in such a way described below.
Firstly, in order to prepare the donor, there were volatilized under a stream of nitrogen gas a phosphatidylcholine solution containing phosphatidylcholine labeled with ^3H, a cardiolipin solution, and a triolein solution containing triolein labeled with ^14C (each solution had been already dissolved in an appropriate organic solvent), or in order to prepare the acceptor, there were volatilized under nitrogen flow a phosphatidylcholine solution containing phosphatidylcholine labeled with ^3H and a cardiolipin solution (each solution had been already dissolved in an appropriate organic solvent). An appropriate amount of a reaction buffer (15 mM Tris-HCl buffer containing 1 mM EDTA.Na2, 40 mM NaCl, and 0.5% (w/v) bovine serum albumin, pH 7.4) was added thereto to be emulsified. The emulsions were treated with ultrasonication under ice-cooling and centrifuged at 4° C. and 159,000×g for 2 hours. Each of the resulting supernatant was used for donor or acceptor.
Each radioactivity in the acceptor and the donor was measured by liquid scintillation counter, and a mixed solution of the acceptor and the donor was prepared with a reaction buffer so as to be a donor-derived radioactivity of 16,000 dpm/400 μL and a acceptor-derived radioactivity of 4,000 dpm/[…]. 400 μL of the mixed solution of the donor and the acceptor, 45 μL of the reaction buffer, 50 μL of MTP (20 μg/mL), and 5 μL of a sample dissolved in DMSO (dimethyl sulfoxide) or 5 μL of DMSO was mixed (total amount: 500 μL). The mixture was incubated at 37° C. for 1.5 hours. After completion of the incubation, 1.25 mL of a suspension of DEAE cellulose (66.7% (v/v)) in 15 mM Tris-HCl buffer (pH 7.4) containing 1 mM EDTA.Na2 was added to the above solution. The mixture was centrifuged to separate the donor (adsorbed on the DEAE cellulose to precipitate) and the acceptor (the supernatant). The radioactivity in the acceptor was measured by liquid scintillation counter. The value obtained by subtracting the radioactivity in a blank group from the radioactivity in the acceptor of a DMSO group was determined as MTP-mediated TG transfer activity, and it was compared with the value obtained by subtracting the radioactivity in the blank group from the radioactivity in a sample group. Here, the blank was prepared by adding 10 mM phosphate buffer (pH 6.8) containing 250 mM NaCl in place of MTP. Inhibition rate (%) was calculated from values obtained according to the following equation. Inhibition rate(%)=(1 minus((radioactivity of sample group minus radioactivity of blank group)/(radioactivity of DMSO group minus radioactivity of blank group)))×100.
50% Inhibition rate (IC50) was determined on the basis of the above equation.
For `COC(=O)c1ccc(-c2nc(C)ccc2C(=O)Nc2ccc(CCCC(=O)Oc3c(C)cc(C(=O)OC)cc3Cl)cc2C(=O)N(C)C)cc1` [Compound 4-1, 3-chloro-4-[4-(3-dimethylcarbamoyl-4-{[2-(4-methoxycarbonylphenyl)-6-methylpyridine-3-carbonyl]amino}phenyl)butyryloxy]-5-methylbenzoic acid methyl ester], the IC50 was < 10 nM. For `COC(=O)COC(=O)c1ccc(OC(=O)CCCc2ccc(NC(=O)c3ccccc3-c3ccc(C(F)(F)F)cc3)c(C(=O)N(C)C)c2)cc1` [Compound 1-86, 4-[4-(3-dimethylcarbamoyl-4-{(4′-trifluoromethylbiphenyl-2-carbonyl)amino}phenyl)butyryloxy]benzoic acid methoxycarbonylmethyl ester], the IC50 was < 10 nM. For `COC(=O)c1ccc(OC(=O)CCCc2ccc(NC(=O)c3ccccc3-c3ccc(C(F)(F)F)cc3)c(C(=O)N3CCCC3)c2)cc1` [Compound 1-15, 4-(4-{3-(pyrrolidine-1-carbonyl)-4-[(4′-trifluoromethylbiphenyl-2-carbonyl)amino]phenyl}butyryloxy)benzoic acid methyl ester], the IC50 was < 10 nM. `COC(=O)c1cc(OC)c(OC(=O)CCCc2ccc(NC(=O)c3ccc(C)nc3-c3ccc(C(F)(F)F)cc3)c(C(=O)N(C)C)c2)c(OC)c1` [Compound 1-39, 4-[4-(3-dimethylcarbamoyl-4-{[6-methyl-2-(4-trifluoromethylphenyl)pyridine-3-carbonyl]amino}phenyl)butyryloxy]-3,5-dimethoxybenzoic acid methyl ester] was tested, and the IC50 was < 10 nM. For `COC(=O)c1ccc(OC(=O)CCCc2ccc(NC(=O)c3ccccc3-c3ccc(C(F)(F)F)cc3)c(C(=O)N(C)C)c2)c(F)c1` [Compound 1-10, 4-(4-{3-dimethylcarbamoyl-4-[(4′-trifluoromethylbiphenyl-2-carbonyl)amino]phenyl}butyryloxy)-3-fluoro benzoic acid methyl ester], the IC50 was < 10 nM. For `COC(=O)c1cc(C)c(OC(=O)CCCc2ccc(NC(=O)c3ccc(C)nc3-c3ccc(C(F)(F)F)cc3)c(C(=O)N(C)C)c2)c(C(=O)OC)c1` [Compound 1-110, 4-[4-(3-dimethylcarbamoyl-4-{[6-methyl-2-(4-trifluoromethylphenyl)pyridine-3-carbonyl]amino}phenyl)butyryloxy]-5-methylisophthalic acid dimethyl ester], the IC50 was < 10 nM. `CCC(=O)c1ccc(OC(=O)CCCc2ccc(NC(=O)c3ccccc3-c3ccc(C(F)(F)F)cc3)c(C(=O)N(C)C)c2)cc1` [Compound 1-88, 4-(3-dimethylcarbamoyl-4-{(4′-trifluoromethylbiphenyl-2-carbonyl)amino}phenyl)butyric acid 4-propionylphenyl ester] was tested, and the IC50 was < 10 nM. With `COc1ccc(COC(=O)c2ccc(OC(=O)CCCc3ccc(NC(=O)c4ccccc4-c4ccc(C(F)(F)F)cc4)c(C(=O)N(C)C)c3)cc2)cc1` [Compound 1-96, 4-[4-(3-dimethylcarbamoyl-4-{(4′-trifluoromethylbiphenyl-2-carbonyl)amino}phenyl)butyryloxy]benzoic acid 4-methoxybenzyl ester] the IC50 was < 10 nM. For `COC(=O)c1ccc(OC(=O)CCCc2ccc(NC(=O)c3cccnc3-c3ccc(C(F)(F)F)cc3)c(C(=O)N(C)C)c2)cc1` [Compound 1-28, 4-[4-(3-dimethylcarbamoyl-4-{[2-(4-trifluoromethylphenyl)pyridine-3-carbonyl]amino}phenyl)butyryloxy]benzoic acid methyl ester], the IC50 was < 10 nM. In the case of `COC(=O)c1ccc(OC(=O)CCCc2ccc(NC(=O)c3ccncc3-c3ccc(C(F)(F)F)cc3)c(C(=O)N(C)C)c2)cc1` [Compound 1-30, 4-[4-(3-dimethylcarbamoyl-4-{[3-(4-trifluoromethylphenyl)pyridine-4-carbonyl]amino}phenyl)butyryloxy]benzoic acid methyl ester], the IC50 is reported as 10 to 100 nM. In the case of `CN(C)C(=O)c1cc(CCCC(=O)Oc2ccc(C(=O)OCCCOCc3ccccc3)cc2)ccc1NC(=O)c1ccccc1-c1ccc(C(F)(F)F)cc1` [Compound 1-90, 4-[4-(3-dimethylcarbamoyl-4-{(4′-trifluoromethylbiphenyl-2-carbonyl)amino}phenyl)butyryloxy]benzoic acid 3-benzyloxypropyl ester], the IC50 is reported as < 10 nM. In the case of `COC(=O)c1cc(C)c(OC(=O)CCCc2ccc(NC(=O)c3ccc(C)nc3-c3ccc(C(F)(F)F)cc3)c(C(=O)N(C)C)c2)c(C(F)(F)F)c1` [Compound 1-45, 4-[4-(3-dimethylcarbamoyl-4-{[6-methyl-2-(4-trifluoromethylphenyl)pyridine-3-carbonyl]amino}phenyl)butyryloxy]-3-methyl-5-trifluoromethylbenzoic acid methyl ester], the IC50 is reported as < 10 nM. For `CN(C)C(=O)c1cc(CCCC(=O)Oc2ccc(C#N)cc2)ccc1NC(=O)c1ccccc1-c1ccc(C(F)(F)F)cc1` [Compound 1-23, 4-{3-dimethylcarbamoyl-4-[(4′-trifluoromethylbiphenyl-2-carbonyl)amino]phenyl}butyric acid 4-cyanophenyl ester], the IC50 was 10 to 100 nM. In the case of `COC(=O)c1ccc(OC(=O)CCCc2ccc(NC(=O)c3ccccc3-c3ccc(C(F)(F)F)cc3)c(C(=O)N(C)C)c2)c(C(C)C)c1` [Compound 1-68, 4-[4-(3-dimethylcarbamoyl-4-{(4′-trifluoromethylbiphenyl-2-carbonyl)amino}phenyl)butyryloxy]-3-isopropylbenzoic acid methyl ester], the IC50 is reported as < 10 nM. `COC(=O)c1ccc(OC(=O)CCCc2ccc(NC(=O)c3ccccc3-c3ccc(C(F)(F)F)cc3)c(C(=O)N(C)C)c2)c(C(F)(F)F)c1` [Compound 1-20, 4-(4-{3-dimethylcarbamoyl-4-[(4′-trifluoromethylbiphenyl-2-carbonyl)amino]phenyl}butyryloxy)-3-trifluoromethylbenzoic acid methyl ester] showed an IC50 of 10 to 100 nM. In the case of `COC(=O)c1cc(C)c(OC(=O)CCCc2ccc(NC(=O)c3ccccc3-c3ccc(C(F)(F)F)cc3)c(C(=O)N(C)C)c2)c(Cl)c1` [Compound 1-34, 3-chloro-4-(4-{3-dimethylcarbamoyl-4-[(4′-trifluoromethylbiphenyl-2-carbonyl)amino]phenyl}butyryloxy)-5-methylbenzoic acid methyl ester], the IC50 is reported as < 10 nM. In the case of `CC(=O)NCCOC(=O)c1ccc(OC(=O)CCCc2ccc(NC(=O)c3ccccc3-c3ccc(C(F)(F)F)cc3)c(C(=O)N(C)C)c2)cc1` [Compound 1-77, 4-[4-(3-dimethylcarbamoyl-4-{(4′-trifluoromethylbiphenyl-2-carbonyl)amino}phenyl)butyryloxy]benzoic acid 2-acetylaminoethyl ester], the IC50 is reported as < 10 nM. `CC(OC(=O)c1ccc(OC(=O)CCCc2ccc(NC(=O)c3ccccc3-c3ccc(C(F)(F)F)cc3)c(C(=O)N(C)C)c2)cc1)c1ccccc1` (stereo not drawn) [Compound 1-106, 4-[4-(3-dimethylcarbamoyl-4-{(4′-trifluoromethylbiphenyl-2-carbonyl)amino}phenyl)butyryloxy]benzoic acid 1-phenylethyl ester] was tested, and the IC50 was < 10 nM. For `Cc1noc(-c2ccc(OC(=O)CCCc3ccc(NC(=O)c4ccccc4-c4ccc(C(F)(F)F)cc4)c(C(=O)N(C)C)c3)cc2)n1` [Compound 1-2, 4-{3-dimethylcarbamoyl-4-[(4′-trifluoromethylbiphenyl-2-carbonyl)amino]phenyl}butyric acid 4-(3-methyl-[1,2,4]oxadiazol-5-yl)phenyl ester], the IC50 was < 10 nM. `CN(C)C(=O)c1cc(CC(=O)Oc2ccc(F)cc2)ccc1NC(=O)c1ccccc1-c1ccc(C(F)(F)F)cc1` [Compound 1-4, {3-dimethylcarbamoyl-4-[(4′-trifluoromethylbiphenyl-2-carbonyl)amino]phenyl}acetic acid 4-fluorophenyl ester] showed an IC50 of 100 to 1000 nM. For `CN(C)C(=O)c1cc(CCCC(=O)Oc2ccc(C(=O)OCC(=O)OCc3ccccc3)cc2)ccc1NC(=O)c1ccccc1-c1ccc(C(F)(F)F)cc1` [Compound 1-78], the IC50 was < 10 nM.
